For 23 targets, thermal stability z-score results are on record in the supplement of paper PMC12463676, “Small-molecule dissolution of stress granules by redox modulation benefits ALS models” (Nature Chemical Biology, 2025).

Compound in one assay: NC(=O)CCCCC1CCSS1 [lipoamide]
The experiment in a line: thermal stability z-score vs DMSO; higher = more thermally stabilized by treatment. Particulars: HeLa, lipoamide concentration 100 µM. The procedure: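 Cellular thermal proteome profiling in HeLa cells. Cells were treated with 100 µM lipoamide for 1 h, with or without 1 mM arsenate for a further 1 h, then heated to ten temperatures (37-66.3 °C), and soluble protein was quantified by TMT mass spectrometry relative to 0.1% DMSO controls. The thermal stability score (sum of log2 fold changes minus the abundance score) was transformed to a z-score; mean of n = 3 experiments.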

Compound in the next assay: O=[As]([O-])(O)O.[K+] [potassium arsenate]
The description is as above. Particulars: HeLa; arsenate concentration 1 mM. As for the experimental part: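 Cellular thermal proteome profiling in HeLa cells treated with 1 mM arsenate for 1 h (DMSO pretreatment), heated to ten temperatures (37-66.3 °C). Soluble protein was quantified by TMT mass spectrometry relative to DMSO controls; the thermal stability score was transformed to a z-score; mean of n = 3 experiments.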

The mark [1] stands for this setting: arsenate co-treatment: 1 mM arsenate 1 h.
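Further: each temperature applied for 3 min, abundance score taken as mean log2 fold change at the two lowest temperatures, z-score obtained by mean subtraction and division by SD.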

Sequence of UniProt Q66K14 (Q66K14 whole entry): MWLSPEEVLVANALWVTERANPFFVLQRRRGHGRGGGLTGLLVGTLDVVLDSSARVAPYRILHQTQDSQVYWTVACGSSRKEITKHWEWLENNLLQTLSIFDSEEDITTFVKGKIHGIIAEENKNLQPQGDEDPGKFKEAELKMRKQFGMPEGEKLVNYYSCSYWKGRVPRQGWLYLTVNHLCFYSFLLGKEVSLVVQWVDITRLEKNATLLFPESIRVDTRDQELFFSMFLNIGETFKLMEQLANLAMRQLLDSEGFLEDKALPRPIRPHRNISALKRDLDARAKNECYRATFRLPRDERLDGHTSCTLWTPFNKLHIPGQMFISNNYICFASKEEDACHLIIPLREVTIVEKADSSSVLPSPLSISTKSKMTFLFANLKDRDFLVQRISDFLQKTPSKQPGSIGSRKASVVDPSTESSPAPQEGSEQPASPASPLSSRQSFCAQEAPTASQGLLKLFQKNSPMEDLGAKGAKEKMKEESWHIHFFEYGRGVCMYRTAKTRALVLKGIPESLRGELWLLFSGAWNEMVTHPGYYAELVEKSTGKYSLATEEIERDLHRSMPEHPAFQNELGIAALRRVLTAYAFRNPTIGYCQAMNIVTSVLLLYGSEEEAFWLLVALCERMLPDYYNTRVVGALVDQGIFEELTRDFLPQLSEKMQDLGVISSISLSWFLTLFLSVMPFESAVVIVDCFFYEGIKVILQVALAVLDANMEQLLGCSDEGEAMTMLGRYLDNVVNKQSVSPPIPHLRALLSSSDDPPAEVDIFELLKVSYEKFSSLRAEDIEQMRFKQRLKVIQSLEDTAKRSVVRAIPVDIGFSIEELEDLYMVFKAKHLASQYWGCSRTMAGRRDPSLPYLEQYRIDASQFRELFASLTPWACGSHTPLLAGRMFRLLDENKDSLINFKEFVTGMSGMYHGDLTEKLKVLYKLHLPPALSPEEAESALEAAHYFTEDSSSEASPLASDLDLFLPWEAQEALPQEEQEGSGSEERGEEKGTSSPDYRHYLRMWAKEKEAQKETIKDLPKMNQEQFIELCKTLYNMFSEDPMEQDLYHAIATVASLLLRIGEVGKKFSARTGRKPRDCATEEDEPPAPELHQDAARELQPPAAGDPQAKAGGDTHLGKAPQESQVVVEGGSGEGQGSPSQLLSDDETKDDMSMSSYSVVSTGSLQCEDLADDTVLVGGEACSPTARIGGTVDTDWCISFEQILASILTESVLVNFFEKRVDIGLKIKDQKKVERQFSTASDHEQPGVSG
Sequence of UniProt Q8TC07 (Q8TC07 whole entry): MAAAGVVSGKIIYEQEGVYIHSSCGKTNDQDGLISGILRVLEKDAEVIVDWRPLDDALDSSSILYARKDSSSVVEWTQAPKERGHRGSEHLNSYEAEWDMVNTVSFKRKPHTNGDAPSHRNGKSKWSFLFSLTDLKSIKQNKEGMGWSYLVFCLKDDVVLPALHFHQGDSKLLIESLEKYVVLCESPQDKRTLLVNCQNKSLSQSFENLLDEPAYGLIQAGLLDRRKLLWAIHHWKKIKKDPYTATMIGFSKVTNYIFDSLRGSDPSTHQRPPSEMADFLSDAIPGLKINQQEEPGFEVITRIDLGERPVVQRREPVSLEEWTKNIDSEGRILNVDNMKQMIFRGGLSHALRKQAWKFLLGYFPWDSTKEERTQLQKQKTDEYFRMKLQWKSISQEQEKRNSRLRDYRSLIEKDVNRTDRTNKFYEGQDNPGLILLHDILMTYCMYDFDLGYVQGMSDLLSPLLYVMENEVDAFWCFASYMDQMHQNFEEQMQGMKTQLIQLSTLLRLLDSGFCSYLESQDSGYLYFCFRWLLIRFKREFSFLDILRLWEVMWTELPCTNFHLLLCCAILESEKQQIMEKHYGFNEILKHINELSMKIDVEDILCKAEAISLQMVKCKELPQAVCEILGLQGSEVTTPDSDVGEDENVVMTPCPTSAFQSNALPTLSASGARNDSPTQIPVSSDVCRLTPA
Sequence of UniProt Q4KMP7 (Q4KMP7 whole entry): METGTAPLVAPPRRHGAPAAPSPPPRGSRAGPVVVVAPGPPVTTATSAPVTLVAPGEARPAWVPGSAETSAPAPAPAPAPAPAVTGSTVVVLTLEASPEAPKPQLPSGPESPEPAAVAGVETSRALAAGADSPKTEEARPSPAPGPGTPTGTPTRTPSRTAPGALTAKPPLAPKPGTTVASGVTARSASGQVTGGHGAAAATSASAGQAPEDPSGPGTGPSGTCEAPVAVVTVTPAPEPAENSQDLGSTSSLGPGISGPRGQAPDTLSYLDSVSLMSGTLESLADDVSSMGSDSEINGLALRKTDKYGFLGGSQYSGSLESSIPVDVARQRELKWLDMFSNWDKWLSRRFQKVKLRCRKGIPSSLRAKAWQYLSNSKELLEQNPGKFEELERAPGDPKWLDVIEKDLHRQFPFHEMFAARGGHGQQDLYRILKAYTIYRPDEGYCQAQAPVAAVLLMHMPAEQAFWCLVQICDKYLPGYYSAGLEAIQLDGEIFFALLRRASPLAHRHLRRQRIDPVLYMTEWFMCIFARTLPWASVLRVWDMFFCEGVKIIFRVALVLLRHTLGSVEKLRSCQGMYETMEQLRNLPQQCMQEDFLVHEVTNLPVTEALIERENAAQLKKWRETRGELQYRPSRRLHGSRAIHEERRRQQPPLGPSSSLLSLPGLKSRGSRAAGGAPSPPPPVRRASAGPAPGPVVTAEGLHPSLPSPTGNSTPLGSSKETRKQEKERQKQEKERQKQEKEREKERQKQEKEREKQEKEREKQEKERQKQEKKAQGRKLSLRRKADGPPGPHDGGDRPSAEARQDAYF
Sequence of UniProt P26639 (P26639 whole entry): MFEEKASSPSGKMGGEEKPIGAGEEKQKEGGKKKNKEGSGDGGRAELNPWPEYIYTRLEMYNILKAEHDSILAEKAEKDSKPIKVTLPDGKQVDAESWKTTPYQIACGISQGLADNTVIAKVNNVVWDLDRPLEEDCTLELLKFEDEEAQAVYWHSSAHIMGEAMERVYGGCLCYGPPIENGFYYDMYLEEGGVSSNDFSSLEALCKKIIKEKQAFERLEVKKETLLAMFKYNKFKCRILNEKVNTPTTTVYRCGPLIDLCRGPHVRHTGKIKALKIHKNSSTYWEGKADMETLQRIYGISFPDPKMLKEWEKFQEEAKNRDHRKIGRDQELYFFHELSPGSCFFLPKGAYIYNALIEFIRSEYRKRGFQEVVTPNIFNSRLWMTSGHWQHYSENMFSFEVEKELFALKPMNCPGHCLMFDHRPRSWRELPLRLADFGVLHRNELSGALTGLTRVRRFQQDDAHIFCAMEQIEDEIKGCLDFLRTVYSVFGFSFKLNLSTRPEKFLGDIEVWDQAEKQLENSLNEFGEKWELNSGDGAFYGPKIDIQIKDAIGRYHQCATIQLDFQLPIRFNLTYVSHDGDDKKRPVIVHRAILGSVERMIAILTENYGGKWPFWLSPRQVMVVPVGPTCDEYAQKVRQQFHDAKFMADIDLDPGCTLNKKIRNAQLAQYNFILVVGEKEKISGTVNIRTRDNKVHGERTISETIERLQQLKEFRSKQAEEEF
Sequence of UniProt Q9ULP9 (Q9ULP9 whole entry): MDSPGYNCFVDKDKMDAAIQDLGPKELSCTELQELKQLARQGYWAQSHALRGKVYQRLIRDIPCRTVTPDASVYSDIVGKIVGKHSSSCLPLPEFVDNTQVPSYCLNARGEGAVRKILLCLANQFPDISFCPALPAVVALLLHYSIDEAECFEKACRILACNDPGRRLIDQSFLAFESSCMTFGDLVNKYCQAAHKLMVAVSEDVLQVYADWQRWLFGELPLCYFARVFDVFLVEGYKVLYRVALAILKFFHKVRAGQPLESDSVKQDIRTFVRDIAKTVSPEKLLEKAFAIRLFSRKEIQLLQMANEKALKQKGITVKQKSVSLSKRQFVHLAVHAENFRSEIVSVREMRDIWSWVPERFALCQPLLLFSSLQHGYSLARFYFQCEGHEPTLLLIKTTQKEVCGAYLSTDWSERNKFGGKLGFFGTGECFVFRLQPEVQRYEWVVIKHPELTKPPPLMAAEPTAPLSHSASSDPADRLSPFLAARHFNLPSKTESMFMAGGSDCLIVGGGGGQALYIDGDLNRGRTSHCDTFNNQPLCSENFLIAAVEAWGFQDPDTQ
Sequence of UniProt A2RTX5 (A2RTX5 whole entry): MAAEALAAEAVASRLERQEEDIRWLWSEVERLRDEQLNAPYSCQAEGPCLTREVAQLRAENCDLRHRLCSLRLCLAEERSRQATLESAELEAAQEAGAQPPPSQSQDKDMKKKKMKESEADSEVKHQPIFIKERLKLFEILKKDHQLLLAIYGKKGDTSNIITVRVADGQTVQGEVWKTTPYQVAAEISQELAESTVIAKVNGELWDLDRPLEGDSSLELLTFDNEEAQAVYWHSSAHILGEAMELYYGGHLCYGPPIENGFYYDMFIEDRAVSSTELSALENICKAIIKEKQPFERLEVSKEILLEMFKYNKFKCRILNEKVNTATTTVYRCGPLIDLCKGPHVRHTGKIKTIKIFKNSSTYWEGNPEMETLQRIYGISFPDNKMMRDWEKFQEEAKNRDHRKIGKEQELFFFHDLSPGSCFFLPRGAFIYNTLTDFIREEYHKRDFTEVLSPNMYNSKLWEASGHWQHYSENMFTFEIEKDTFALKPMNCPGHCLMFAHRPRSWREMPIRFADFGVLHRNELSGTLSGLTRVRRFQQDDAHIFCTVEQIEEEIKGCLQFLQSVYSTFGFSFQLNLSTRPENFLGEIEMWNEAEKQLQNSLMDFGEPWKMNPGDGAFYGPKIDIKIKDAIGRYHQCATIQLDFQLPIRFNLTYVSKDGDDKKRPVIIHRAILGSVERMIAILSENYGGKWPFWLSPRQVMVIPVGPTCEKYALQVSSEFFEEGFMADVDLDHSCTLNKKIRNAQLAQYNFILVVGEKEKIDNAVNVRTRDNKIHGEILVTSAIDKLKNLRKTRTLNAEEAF
Sequence of UniProt O75347 (O75347 whole entry): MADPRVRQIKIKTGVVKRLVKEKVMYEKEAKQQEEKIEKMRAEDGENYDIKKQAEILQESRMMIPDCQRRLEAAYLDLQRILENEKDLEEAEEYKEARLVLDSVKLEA

As for TARBP2 (UniProt Q15633), the thermal stability z-score in the assay with lipoamide (setting [1]) is 0.357; with lipoamide (arsenate co-treatment: none) it was 0.542; in the assay with potassium arsenate, -0.00318.

On to TARDBP (UniProt Q13148), for which the thermal stability z-score with lipoamide (setting [1]) is 0.125; with lipoamide (arsenate co-treatment: none), 0.504; in the assay with potassium arsenate, -0.755.

Take TARS2 (UniProt Q9BW92): the thermal stability z-score was 0.183 with lipoamide (setting [1]), 0.625 with lipoamide (arsenate co-treatment: none) and 0.922 with potassium arsenate.

Regarding TARS (UniProt P26639), the thermal stability z-score was 0.0423 with lipoamide (setting [1]), -0.0639 in the assay with lipoamide (arsenate co-treatment: none) and 0.853 with potassium arsenate.

On to TARSL2 (UniProt A2RTX5), for which the thermal stability z-score was -0.396 with lipoamide (setting [1]), 0.561 in the assay with lipoamide (arsenate co-treatment: none) and 0.0722 with potassium arsenate.

In the case of TATDN1 (UniProt Q6P1N9), the thermal stability z-score amounted to 0.263 with lipoamide (setting [1]), 0.514 with lipoamide (arsenate co-treatment: none) and 0.169 in the assay with potassium arsenate.

With TAX1BP1 (UniProt Q86VP1), the thermal stability z-score with lipoamide (setting [1]) was -0.152; with lipoamide (arsenate co-treatment: none), 0.411; in the assay with potassium arsenate, 0.997.

Consider TAX1BP3 (UniProt O14907), for which the thermal stability z-score is 0.0819 with lipoamide (setting [1]), -0.232 with lipoamide (arsenate co-treatment: none) and 0.424 with potassium arsenate.

As for TBC1D2 (UniProt Q9BYX2), the thermal stability z-score with lipoamide (setting [1]) is -0.151; in the assay with lipoamide (arsenate co-treatment: none), 0.0824; with potassium arsenate it was 0.225.

Turning to TBC1D2B (UniProt Q9UPU7), the results for the thermal stability z-score with lipoamide (setting [1]), with lipoamide (arsenate co-treatment: none) and with potassium arsenate were -0.169, -0.202 and -0.23, respectively.

For the target TBC1D4 (UniProt O60343), the thermal stability z-score was -0.14 with lipoamide (setting [1]), 0.292 with lipoamide (arsenate co-treatment: none) and 0.51 with potassium arsenate.

For the target TBC1D5 (UniProt Q92609), the figures for the thermal stability z-score with lipoamide (setting [1]), in the assay with lipoamide (arsenate co-treatment: none) and with potassium arsenate were -0.097, -0.749 and -0.0438, respectively.

In the case of TBC1D9B (UniProt Q66K14), the thermal stability z-score with lipoamide (setting [1]) is -0.357; with lipoamide (arsenate co-treatment: none), -0.158; with potassium arsenate, -0.401.

On to TBC1D10A (UniProt Q9BXI6), for which the thermal stability z-score with lipoamide (setting [1]) was -0.00261; with lipoamide (arsenate co-treatment: none) it was -0.137; in the assay with potassium arsenate it was 0.0768.

For the target TBC1D10B (UniProt Q4KMP7), the thermal stability z-score with lipoamide (setting [1]) was -0.825; with lipoamide (arsenate co-treatment: none), -0.121; with potassium arsenate it was -0.503.

In the case of TBC1D13 (UniProt Q9NVG8), the results for the thermal stability z-score with lipoamide (setting [1]), with lipoamide (arsenate co-treatment: none) and in the assay with potassium arsenate were 0.33, 0.109 and -0.494, respectively.

In the case of TBC1D15 (UniProt Q8TC07), the values for the thermal stability z-score in the assay with lipoamide (setting [1]), with lipoamide (arsenate co-treatment: none) and with potassium arsenate were -0.559, -0.646 and -0.276, respectively.

For the target TBC1D17 (UniProt Q9HA65), the thermal stability z-score with lipoamide (setting [1]) was -0.114; with lipoamide (arsenate co-treatment: none), -0.107; in the assay with potassium arsenate, -0.0293.

Consider TBC1D22A (UniProt Q8WUA7), for which the thermal stability z-score was -1.16 with lipoamide (setting [1]), -0.15 in the assay with lipoamide (arsenate co-treatment: none) and -1.19 in the assay with potassium arsenate.

Take TBC1D23 (UniProt Q9NUY8): the thermal stability z-score with lipoamide (setting [1]) is -0.408; in the assay with lipoamide (arsenate co-treatment: none) it was -0.264; with potassium arsenate it was 0.407.

Take TBC1D24 (UniProt Q9ULP9): the thermal stability z-score was -0.346 with lipoamide (setting [1]), -0.491 with lipoamide (arsenate co-treatment: none) and 0.0941 in the assay with potassium arsenate.

On to TBCA (UniProt O75347), for which the thermal stability z-score in the assay with lipoamide (setting [1]) was 0.458; with lipoamide (arsenate co-treatment: none) it was 1.12; in the assay with potassium arsenate it was 0.264.

Consider TBCB (UniProt Q99426), for which the thermal stability z-score was 0.475 with lipoamide (setting [1]), -0.253 with lipoamide (arsenate co-treatment: none) and -1.55 in the assay with potassium arsenate.
